Holding throughout (experiment): NCI tumour cell line growth inhibition, 48 h
The subject of experiment [1] is SN12C renal.
For experiment [2], the system named is A549 NSCLC.
Experiment [3] deals with HOP-92 NSCLC.
Experiment [4] relates to MOLT-4 leukemia.
Experiment [5] concerns UACC-62 melanoma.
The test system of experiment [6] is NCI-H23 lung.
Experiment [7] concerns HL-60(TB) leukemia.
Experiment [8] relates to U251 CNS.
Experiment [9] has as its system SNB-19 CNS.
Experiment [10] relates to NCI-H460 lung.

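Interpolation was linear, between the two tested concentrations surrounding the appropriate level; five concentrations were tested over 48 hours in 96-well plates. Abbreviation: GI50, concentration required for 50% inhibition of growth. At the TGI there is no net growth.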

As for `CN(Cc1ccc(C(F)(F)F)cc1)CC(O)C(=O)Nc1ccc(Cl)cc1` (stereo not given), the GI50 is 1.49 µM in [1]; 1.69 µM in experiment [2]; 1.08 µM in [3]; 1.42 µM in experiment [4]; 1.64 µM in [5]; 1.32 µM in experiment [6]. The GI50 was 1.37 µM in experiment [7], 1.73 µM in experiment [8], 1.78 µM in experiment [9] and 1.59 µM in [10]. In addition, the TGI stood at 2.88 µM in [1]; 3.16 µM in experiment [2]; 2.37 µM in experiment [3]; 3.28 µM in [4]; 3.13 µM in experiment [5]; 2.69 µM in experiment [6]. Further, the TGI in experiment [7] is 3.09 µM; in experiment [8], 3.16 µM; in experiment [9], 3.28 µM; in [10], 3.21 µM.

As for `Cc1c(C(=O)/C=C/C=C/c2ccccc2)[n+](=O)c2ccccc2n1[O-]`, the TGI is 73.2 µM in experiment [1]; 82.3 µM in experiment [2]; 89.1 µM in experiment [3]; over 100 µM in [4]; 30.2 µM in experiment [5]; 51.4 µM in [6]. The TGI in [7] is over 100 µM; in experiment [8] it was over 100 µM; in experiment [9] it was over 100 µM; in experiment [10], 61.5 µM.

With `CCOC(=O)CCC1(C(=O)OCC)CCCC1=O` (stereo not given), the TGI in [1], in [2], in experiment [3], in [4], in experiment [5] and in experiment [6] was over 100 µM each time. Moreover, the TGI in [7], in experiment [8], in experiment [9] and in experiment [10] was over 100 µM each time.

Take `Cc1ccc2nc(-c3ccc(OCC(=O)N=Nc4c(O)[nH]c5ccccc45)cc3)[nH]c2c1`: the GI50 in experiment [1] is 2.42 µM; in [2] it was 2.38 µM; in experiment [3] it was 2.79 µM; in experiment [4], 2.99 µM; in experiment [5], 4.38 µM; in [6], 3.53 µM. In addition, the GI50 in experiment [7] was 9.8 µM; in experiment [8], 1.86 µM; in [9] it was 4.01 µM; in experiment [10], 2.01 µM. The TGI came out at 7.73 µM in [1]; 6.32 µM in experiment [2]; 18.2 µM in experiment [3]; 8.87 µM in experiment [4]; 16.8 µM in experiment [5]; 14.5 µM in experiment [6]. For the same compound, the TGI is 35.9 µM in experiment [7], 3.6 µM in [8], 15.9 µM in [9] and 4.06 µM in experiment [10].

With `O=C(/C=C/c1ccc(C(F)(F)F)cc1)Nc1ccc(C=C2c3ccccc3C(=O)c3ccccc32)cc1`, the GI50 in experiment [1] was 26.7 µM; in experiment [2], 6.14 µM; in experiment [3], 1.49 µM; in [4], 4.65 µM; in [5], 3.04 µM; in experiment [6] it was 3.32 µM. Moreover, the GI50 in [7] is 1.78 µM; in experiment [8], 5.69 µM; in [9], 8.61 µM; in experiment [10], 5.48 µM. The TGI in experiment [1] was over 100 µM; in experiment [2] it was over 100 µM; in [3], 22.4 µM; in [4], 65.1 µM; in [5], 63.7 µM; in experiment [6] it was over 100 µM. Moreover, the TGI in [7] is 8.75 µM; in [8], 60.7 µM; in experiment [9], over 100 µM; in [10], over 100 µM.

`Cc1cc(NC(=O)C2C3C=CC(O3)C2C(=O)O)no1` (stereo not given): the TGI in [1], in experiment [2], in [3], in experiment [4], in experiment [5] and in experiment [6] was over 100 µM each time. The TGI in experiment [7] was 40 µM; in experiment [8] it was 53.8 µM; in experiment [9], over 100 µM; in experiment [10] it was over 100 µM.

With `CCN(Cc1cc(F)ccc1F)c1ccc(CO)c(Cl)c1`, the GI50 in experiment [1] was 11.8 µM; in experiment [2] it was 1.54 µM; in [3], 0.292 µM; in experiment [4], 18.1 µM; in [5] it was 0.0877 µM; in experiment [6] it was 11.4 µM. Also, the GI50 in experiment [7] was 5.62 µM; in experiment [8] it was 0.788 µM; in experiment [9] it was 20.2 µM; in experiment [10], 0.177 µM. Further, the TGI was 25.6 µM in [1]; 21.6 µM in [2]; 6.21 µM in [3]; 53.8 µM in [4]; 0.602 µM in experiment [5]; 33.1 µM in experiment [6]. Further, the TGI came to 34.7 µM in experiment [7], 17.1 µM in [8], 80.3 µM in experiment [9] and 10.8 µM in experiment [10].

For the compound `CC(C)c1nc(N(C)S(C)(=O)=O)nc(-c2ccc(F)cc2)c1/C=C/[C@@H](O)C[C@@H](O)CC(=O)O`, the GI50 in experiment [1] was 56.2 µM; in [2], over 100 µM; in experiment [3], 0.467 µM; in experiment [4], over 100 µM; in experiment [5], 42.1 µM; in experiment [6], over 100 µM. Besides, the GI50 in [7] was over 100 µM; in [8], 18.9 µM; in experiment [9] it was 48.2 µM; in experiment [10], over 100 µM. Further, the TGI is over 100 µM in experiment [1]; over 100 µM in experiment [2]; 6.68 µM in [3]; over 100 µM in experiment [4]; over 100 µM in experiment [5]; over 100 µM in [6]. Further, the TGI in [7], in experiment [8], in experiment [9] and in [10] was over 100 µM throughout.

For `CCN1CCN(Cc2ccc(NC(=O)Nc3nc4ccc(Oc5ccnc(C(=O)NC)c5)cc4s3)cc2C(F)(F)F)CC1`, the GI50 in experiment [1] is 1.8 µM; in [2] it was 1.99 µM; in experiment [3] it was 1.94 µM; in [4], 2.13 µM; in [5], 1.7 µM; in experiment [6] it was 1.83 µM. For the same compound, the GI50 in experiment [7] is 2.01 µM; in [8], 1.85 µM; in [9], 2.33 µM; in experiment [10], 1.91 µM. Moreover, the TGI in [1] was 3.66 µM; in experiment [2], 3.71 µM; in experiment [3], 3.91 µM; in [4], 5.02 µM; in [5] it was 3.28 µM; in experiment [6], 3.86 µM. In addition, the TGI in [7] is 4.11 µM; in experiment [8], 3.45 µM; in experiment [9], 4.86 µM; in [10], 3.63 µM.
